Read-outs that look alike come from different tables or passages of the source.
Legend:
senescent A549 cells = experiment: Senescence assay: viability of senescent A549 cells (CellTiter-Glo or XTT); assay type: cell-based; details: chemotherapy-induced senescent A549 cells, compounds incubated 24-72 hours, viability relative to untreated control, read-out: A549_SEN IC50 (Absolute IC50 average)
Method: (§1) Cells were maintained in DMEM media (high glucose, 4 mM L-glutamine, no sodium pyruvate) supplemented with 10% fetal bovine serum in a humidified incubator at 37° C. with 5% carbon dioxide. Senescence was induced via treatment with a sublethal concentration of chemotherapy (bleomycin, gemcitabine, doxorubicin, 5-fluorouridine, mitomycin C), followed by a rest period without chemotherapy similarly to what is reported by others in the field (e.g., Aoshiba et al., 2003 Eur Respir J 22:436-443). Senescence was qualified by low EdU (5-ethynyl-2′-deoxyuridine) incorporation and high SA-β-Gal (senescence-associated beta-galactosidase) staining compared to proliferating untreated cells. Senescent cells were plated into 96-well plates at a density of 5-15,000 cells/well. The next day, compounds were added in duplicate across ten different concentrations spanning roughly four Log 10 units. Cells were incubated with the compounds for 24-72 hours, at which point viability was quantified using CellTiter-Glo (Promega) or XTT (R&D Systems). The viability for treated cells was determined relative to untreated control cells. The log of the compound concentration vs. normalized mean viability was fit to a four parameters Hill function with variable slope. The bottom was constrained to be greater than zero. The X mean value for Y=50 was interpolated to determine the absolute IC50. The results in Table 1 indicate that many of the compounds are active in cells and can induce a dose dependent decrease in the viability of senescent A549 and IMR90 cells.

senescent IMR90 cells = experiment: Senescence assay: viability of senescent IMR90 cells (CellTiter-Glo or XTT); assay type: cell-based; details: Homo sapiens, IMR-90; chemotherapy-induced senescent IMR90 cells; compounds incubated 24-72 hours; viability relative to untreated control; read-out: IMR90_SEN IC50 (Absolute IC50 average)
Method: as §1

Row | IC50 (senescent A549 cells; Homo sapiens) [nM] | Structure (SMILES) | IC50 (senescent IMR90 cells) [nM] | IC50 (senescent A549 cells) [nM]
1 | 10 to 100 | C#Cc1ccc(CNC(=O)[C@@H]2C[C@H](O)CN2C(=O)[C@@H](NC(=O)CCCCCS(=O)(=O)NC(=O)c2nc(C(=O)c3cc(C)c(Nc4nc5ccccc5s4)nn3)ccc2-c2cnn(CC34CC5(C)CC(C)(C3)CC(OCCN3CCOCC3)(C5)C4)c2C)C(C)(C)C)cc1 [Compound 6, (2S,4R)-1-[(2S)-2-[6-({6-[6-(1,3-benzothiazol-2-ylamino)-5-methylpyridazine-3-carbonyl]-3-(1-{[(1S,3R,5S,7R)-3,5-dimethyl-7-[2-(morpholin-4-yl)ethoxy]adamantan-1-yl]methyl}-5-methylpyrazol-4-yl)pyridin-2-yl}formamidosulfonyl)hexanamido]-3,3-dimethylbutanoyl]-N-[(4-ethynylphenyl)methyl]-4-hydroxypyrrolidine-2-carboxamide] |  | 
2 | 100 to 1000 | Cc1cc(C(=O)c2ccc(-c3cnn(CC45CC6(C)CC(C)(C4)CC(OCCN4CCOCC4)(C6)C5)c3C)c(C(=O)NS(=O)(=O)c3ccc(N4CC(C(=O)N[C@H](C(=O)N5C[C@H](O)C[C@H]5C(=O)N[C@H](C)c5ccc(-c6scnc6C)cc5)C(C)(C)C)C4)cc3)n2)nnc1Nc1nc2ccccc2s1 [Compound 7, 6-[6-(1,3-benzothiazol-2-ylamino)-5-methylpyridazine-3-carbonyl]-3-(1-{[(1S,3R,5S,7R)-3,5-dimethyl-7-[2-(morpholin-4-yl)ethoxy]adamantan-1-yl]methyl}-5-methylpyrazol-4-yl)-N-[4-(3-{[(2S)-1-[(2S,4R)-4-hydroxy-2-{[(1S)-1-[4-(4-methyl-1,3-thiazol-5-yl)phenyl]ethyl]carbamoyl}pyrrolidin-1-yl]-3,3-dimethyl-1-oxobutan-2-yl]carbamoyl}azetidin-1-yl)benzenesulfonyl]pyridine-2-carboxamide] |  | 

Continued, compound first:

Row | Structure (SMILES) | IC50 (senescent A549 cells; Homo sapiens) [nM] | IC50 (senescent IMR90 cells) [nM] | IC50 (senescent A549 cells) [nM]
3 | Cc1cc(C(=O)c2ccc(-c3cnn(CC45CC6(C)CC(C)(C4)CC(OCCO)(C6)C5)c3C)c(C(=O)O)n2)nnc1Nc1nc2ccccc2s1 [Compound 1, 6-(6-(benzo[d]thiazol-2-ylamino)-5-methylpyridazine-3-carbonyl)-3-(1-(((1r,3s,5R,7S)-3-(2-hydroxyethoxy)-5,7-dimethyladamantan-1-yl)methyl)-5-methyl-1H-pyrazol-4-yl)picolinic acid] | 1000 to 10000 | 100 to 1000 | 
4 | Cc1cc(C(=O)c2ccc(-c3cnn(CC45CC6(C)CC(C)(C4)CC(OCCN4CCOCC4)(C6)C5)c3C)c(C(=O)O)n2)nnc1Nc1nc2ccccc2s1 [Compound 2, 6-(6-(benzo[d]thiazol-2-ylamino)-5-methylpyridazine-3-carbonyl)-3-(1-(((1r,3R,5S,7s)-3,5-dimethyl-7-(2-morpholinoethoxy)adamantan-1-yl)methyl)-5-methyl-1H-pyrazol-4-yl)picolinic acid] | 10 to 100 | 10 to 100 | 
5 | Cc1cc(C(=O)c2nc(C(=O)O)c(CCCOc3ccc(C#CCN(C)C)cc3F)s2)nnc1Nc1nc2ccccc2s1 [Compound 3, 2-(6-(benzo[d]thiazol-2-ylamino)-5-methylpyridazine-3-carbonyl)-5-(3-(4-(3-(dimethylamino)prop-1-yn-1-yl)-2-fluorophenoxy)propyl) thiazole-4-carboxylic acid] | 100 to 1000 | 1000 to 10000 | 
6 | Cc1cc(C(=O)c2ccc(-c3cnn(CC45CC6(OCCN7CCOCC7)C[C@](C)(C4)C[C@](C)(C5)C6)c3C)c(C(=O)NS(=O)(=O)CCCCCC(=O)N[C@H](C(=O)N3C[C@H](O)C[C@H]3C(=O)N[C@@H](C)c3ccc(-c4scnc4C)cc3)C(C)(C)C)n2)nnc1Nc1nc2ccccc2s1 [Compound 4, (2S,4R)-1-[(2S)-2-[6-({6-[6-(1,3-benzothiazol-2-ylamino)-5-methylpyridazine-3-carbonyl]-3-(1-{[(1S,3R,5S,7R)-3,5-dimethyl-7-[2-(morpholin-4-yl)ethoxy]adamantan-1-yl]methyl}-5-methylpyrazol-4-yl)pyridin-2-yl}formamidosulfonyl)hexanamido]-3,3-dimethylbutanoyl]-4-hydroxy-N-[(1S)-1-[4-(4-methyl-1,3-thiazol-5-yl)phenyl]ethyl]pyrrolidine-2-carboxamide] |  |  | 100 to 1000
7 | Cc1cc(C(=O)c2ccc(-c3cnn(CC45CC6(OCCN7CCOCC7)C[C@](C)(C4)C[C@](C)(C5)C6)c3C)c(C(=O)NS(=O)(=O)CCCCCC(=O)N[C@H](C(=O)N3C[C@@H](O)C[C@H]3C(=O)N[C@@H](C)c3ccc(-c4scnc4C)cc3)C(C)(C)C)n2)nnc1Nc1nc2ccccc2s1 [Compound 5, (2S,4S)-1-[(2S)-2-[6-({6-[6-(1,3-benzothiazol-2-ylamino)-5-methylpyridazine-3-carbonyl]-3-(1-{[(1S,3R,5S,7R)-3,5-dimethyl-7-[2-(morpholin-4-yl)ethoxy]adamantan-1-yl]methyl}-5-methylpyrazol-4-yl)pyridin-2-yl}formamidosulfonyl)hexanamido]-3,3-dimethylbutanoyl]-4-hydroxy-N-[(1S)-1-[4-(4-methyl-1,3-thiazol-5-yl)phenyl]ethyl]pyrrolidine-2-carboxamide] |  |  | 100 to 1000
